Laboratory results as given in patent publication US9273029B2, “Pyridine-and pyrazine derivatives” (Merck Patent GmbH, priority 2011, dated 2016).

Experiments:
[1] = target: TANK binding kinase (TBK1) (Homo sapiens (Human), UniProt Q9UHD2); test: TBK1 enzyme assay (384-well Flashplate kinase assay); type: biochemical; conditions: 10 μM ATP, 120 Min at 30° C.
Experimental: The kinase assay is performed as 384-well Flashplate assay (for e.g. Topcount measurement. 0.6 nM TANK binding kinase (TBK1), 800 nM biotinylated MELK-derived peptide (Biotin-Ah-Ah-[…]) SEQ ID NO: 2 and 10 μM ATP (spiked with 0.25 μCi ^33P-ATP/well) are incubated in a total volume of 50 μl (10 mM MOPS, 10 mM Mg-acetat, 0.1 mM EGTA, 1 mM DTT, 0.02% Brij35, 0.1% BSA, pH 7.5) with or without test compound for 120 Min at 30° C. The reaction is stopped with 25 μl 200 mM EDTA. After 30 Min at room temperature the liquid is removed and each well washed thrice with 100 μl 0.9% sodium chloride solution. Nonspecific reaction is determined in presence of 100 nM Staurosporine. Radioactivity is measured in a Topcount (PerkinElmer). Results (e.g. IC50-values) are calculated with program tools provided by the IT-department (e.g. AssayExplorer, Symyx).

IKKε = IKKε (Homo sapiens (Human), UniProt Q14164); test: IKKε kinase assay (384-well Flashplate); type: biochemical; conditions: 10 μM ATP, 2 hours at 30° C.; read-out: IKKε enzyme assay IC50
Experimental: IKKε—Kinase Assay (IKKepsilon)
The kinase assay is performed either as 384-well Flashplate assay (for e.g. Topcount measurement). 1 nM IKKε, 800 nM biotinylated IκBα(19-42) peptide (Biotin-C6-C6-[…]) SEQ ID NO: 1 and 10 μM ATP (spiked with 0.3 μCi ^33P-ATP/well) are incubated in a total volume of 50 μl (10 mM MOPS, 10 mM Mg-acetat, 0.1 mM EGTA, 1 mM Dithiothreitol,0.02% Brij35, 0.1% BSA, 0.1% BioStab, pH 7.5) with or without test compound for 2 hours at 30° C. The reaction is stopped with 25 μl 200 mM EDTA. After 30 Min at room temperature the liquid is removed and each well washed thrice with 100 μl 0.9% sodium chloride solution. Non-specific reaction is determined in presence of 3 μM MSC2119074 (BX-795). Radioactivity is measured with Topcount (PerkinElmer). Results (e.g. IC50-values) are calculated with program tools provided by the IT-department (e.g. AssayExplorer, Symyx).

Sequence of TANK binding kinase (TBK1) (Q9UHD2 whole entry): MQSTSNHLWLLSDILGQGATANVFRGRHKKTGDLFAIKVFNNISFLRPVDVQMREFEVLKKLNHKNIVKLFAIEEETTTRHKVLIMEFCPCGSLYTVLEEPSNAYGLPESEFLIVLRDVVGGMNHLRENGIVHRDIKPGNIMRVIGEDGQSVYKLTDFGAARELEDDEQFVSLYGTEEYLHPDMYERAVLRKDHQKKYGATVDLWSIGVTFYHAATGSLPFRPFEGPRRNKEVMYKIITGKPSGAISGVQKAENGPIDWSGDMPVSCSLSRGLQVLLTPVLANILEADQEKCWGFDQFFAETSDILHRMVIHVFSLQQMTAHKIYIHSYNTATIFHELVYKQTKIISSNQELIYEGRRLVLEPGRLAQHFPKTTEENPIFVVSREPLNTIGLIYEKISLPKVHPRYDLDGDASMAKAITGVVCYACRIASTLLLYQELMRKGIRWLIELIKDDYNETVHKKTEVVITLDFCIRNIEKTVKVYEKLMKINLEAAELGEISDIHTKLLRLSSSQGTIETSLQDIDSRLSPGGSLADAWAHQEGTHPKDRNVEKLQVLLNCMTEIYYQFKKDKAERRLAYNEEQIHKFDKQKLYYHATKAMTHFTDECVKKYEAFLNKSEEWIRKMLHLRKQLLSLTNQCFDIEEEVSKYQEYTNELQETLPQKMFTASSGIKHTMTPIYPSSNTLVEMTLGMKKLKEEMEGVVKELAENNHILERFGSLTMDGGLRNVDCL
Sequence of IKKε (Q14164 whole entry): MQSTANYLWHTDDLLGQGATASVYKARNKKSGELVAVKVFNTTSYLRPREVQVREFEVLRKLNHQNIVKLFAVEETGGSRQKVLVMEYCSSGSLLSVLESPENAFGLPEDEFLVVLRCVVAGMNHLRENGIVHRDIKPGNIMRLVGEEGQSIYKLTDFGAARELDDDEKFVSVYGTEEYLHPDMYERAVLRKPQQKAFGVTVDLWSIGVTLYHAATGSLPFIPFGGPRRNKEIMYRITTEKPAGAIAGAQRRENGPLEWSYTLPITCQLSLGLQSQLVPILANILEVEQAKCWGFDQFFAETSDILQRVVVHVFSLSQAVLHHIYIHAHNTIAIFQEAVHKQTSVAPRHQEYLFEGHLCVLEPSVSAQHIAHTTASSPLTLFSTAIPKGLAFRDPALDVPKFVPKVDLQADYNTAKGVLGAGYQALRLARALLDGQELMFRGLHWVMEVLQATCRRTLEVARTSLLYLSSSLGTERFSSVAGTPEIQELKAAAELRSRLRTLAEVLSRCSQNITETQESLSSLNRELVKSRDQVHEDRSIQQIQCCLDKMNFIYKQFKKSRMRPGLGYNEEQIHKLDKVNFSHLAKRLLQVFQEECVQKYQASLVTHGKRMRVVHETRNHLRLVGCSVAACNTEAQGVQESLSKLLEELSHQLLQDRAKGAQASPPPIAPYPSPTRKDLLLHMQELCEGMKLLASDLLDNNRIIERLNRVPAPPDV

Row | IC50 [1] | IC50 (IKKε) | Compound
1 | 1200 nM | 610 nM | COCCn1cc(-c2cnc(N)c(C(=O)Nc3ccnc(C)c3)c2)cn1 [Compound A20, 2-Amino-5-[1-(2-methoxy-ethyl)-1H-pyrazol-4-yl]-N-(2-methyl-pyridine-4-yl)-nicotinamide]
2 | 370 nM | 1800 nM | Nc1ncc(-c2cnc3ccccn23)cc1C(=O)Nc1ccncc1 [Compound A58]
3 | 1000 nM |  | Nc1ncc(-c2ccc(CN3CCOCC3)s2)nc1C(=O)Nc1ccncc1 [Compound A10, 3-Amino-6-(5-morpholin-4-ylmethyl-thiophen-2-yl)-pyrazine-2-carboxylic acid pyridin-4-ylamide]
4 | 610 nM | 140 nM | Nc1ncc(-c2ccoc2)cc1C(=O)Nc1ccncc1 [Compound A45, 2-Amino-5-furan-3-yl-N-pyridin-4-yl-nicotinamide]
5 | 130 nM | 110 nM | Nc1ncc(-c2ccc(CN3CCCC3)s2)cc1C(=O)Nc1ccncc1 [Compound A2, 2-Amino-N-pyridin-4-yl-5-(5-pyrrolidin-1-ylmethyl-thiophen-2-yl)-nicotinamide]
6 | 190 nM | 540 nM | CC(=O)Nc1cc(NC(=O)c2cc(-c3ccc(CN4CCOCC4)s3)cnc2N)ccn1 [Compound A36, N-(2-Acetylamino-pyridin-4-yl)-2-amino-5-(5-morpholin-4-ylmethyl-thiophen-2-yl)-nicotinamide]
7 | 690 nM | 2400 nM | COCCn1cc(-c2cnc(N)c(C(=O)Nc3ccncc3C)c2)cn1 [Compound A22, 2-Amino-5-[1-(2-methoxy-ethyl)-1H-pyrazol-4-yl]-N-(3-methyl-pyridin-4-yl)-nicotinamide]
8 | 670 nM | 2000 nM | Cc1cc(NC(=O)c2cc(-c3csc(CN4CCOCC4)c3)cnc2N)ccn1 [Compound A15, 2-Amino-N-(2-methyl-pyridin-4-yl)-5-(5-morpholin-4-ylmethyl-thiophen-3-yl)-nicotinamide]
9 | 250 nM | 600 nM | Nc1ncc(-c2ccc(CN3CCOCC3)s2)cc1C(=O)Nc1ccncc1Cl [Compound A33, 2-Amino-N-(3-chloro-pyridin-4-yl)-5-(5-morpholin-4-ylmethyl-thiophen-2-yl)-nicotinamide]
10 | 410 nM | 3300 nM | Nc1ncc(-c2ccc[nH]2)cc1C(=O)Nc1ccncc1 [Compound A57, 2-Amino-N-pyridin-4-yl-5-(1H-pyrrol-2-yl)-nicotinamide]
11 | 1000 nM | 2800 nM | Cc1cnccc1NC(=O)c1cc(-c2ccc(-n3cccn3)cc2)cnc1N [Compound A19, 2-Amino-N-(3-methyl-pyridin-4-yl)-5-(4-pyrazol-1-yl-phenyl)-nicotinamide]
12 | 4000 nM | 1900 nM | Nc1ncc(-c2ccc(CN3CCCCC3)s2)nc1C(=O)Nc1ccncc1 [Compound A13, 3-Amino-6-(5-piperidin-1-ylmethyl-thiophen-2-yl)-pyrazine-2-carboxylic acid pyridin-4-ylamide]
13 | 630 nM |  | Nc1ncc(-c2cc3ccccc3s2)cc1C(=O)Nc1ccncc1 [Compound A52, 2-Amino-5-benzo[b]thiophen-2-yl-N-pyridin-4-yl-nicotinamide]
14 | 390 nM |  | Nc1ncc(-c2cc3ccccc3[nH]2)cc1C(=O)Nc1ccncc1 [Compound A55, 2-Amino-5-(1H-indol-2-yl)-N-pyridin-4-yl-nicotinamide]
15 | 320 nM |  | Cn1cccc1-c1cnc(N)c(C(=O)Nc2ccncc2)c1 [Compound A50, 2-Amino-5-(1-methyl-1H-pyrrol-2-yl)-N-pyridin-4-yl-nicotinamide]
16 | 450 nM |  | COC(=O)c1cnccc1NC(=O)c1cc(-c2ccc(CN3CCOCC3)s2)cnc1N [Compound A35, 4-{[2-Amino-5-(5-morpholin-4-ylmethyl-thiophen-2-yl)-pyridine-3-carbonyl]-amino}-nicotinic acid methyl ester]

Row | Compound | IC50 [1] | IC50 (IKKε)
17 | Nc1ncc(-c2cnn(CCO)c2)cc1C(=O)Nc1ccncc1 [Compound A42, 2-Amino-5-[1-(2-hydroxy-ethyl)-1H-pyrazol-4-yl]-N-pyridin-4-yl-nicotinamide] | 670 nM | 1700 nM
